This passage reports MIC results from patent publication US5608056A, “Substituted 3-pyrrolidinylthio-carbapenems as antimicrobial agents” (Fujisawa Pharmaceutical Co., Ltd., priority 1992, dated 1997).

For the assay, the system named is P. aeruginosa IAM1095. Put plainly: in vitro antimicrobial activity, two-fold agar-plate dilution method (MIC). Type of assay: cell-based. Particulars: Pseudomonas aeruginosa, heart infusion agar (HI-agar), 10^6 viable cells per ml, 37° C., 20 hours, read-out: minimal inhibitory concentration (MIC). As to the method: in vitro Antimicrobial Activity was determined by the two-fold agar-plate dilution method as described below.
One loopful of an overnight culture of a test strain in Trypticase-soy broth (10^6 viable cells per ml) was streaked on heart infusion agar (HI-agar) containing graded concentrations of the test compound, and the minimal inhibitory concentration (MIC) was expressed in terms of μg/ml after incubation at 37° C. for 20 hours.

Take `C[C@@H](O)[C@H]1C(=O)N2C(C(=O)O)=C(S[C@@H]3CN[C@H](CC[n+]4ccn(C)c4)C3)[C@H](C)[C@H]12` [Example 4-4), (4R,5S,6S)-6-[(1R)-1-hydroxyethyl]-4-methyl-3-[(2R,4S)-2-{2-(3-methyl-1-imidazolio)ethyl}pyrrolidin-4-yl]thio-7-oxo-1-azabicyclo[3.2.0]hept-2-ene-2-carboxylic acid chloride]: the MIC amounted to 0.78 µg/mL.
